± gives the standard deviation of the averaged measurements.
Assays:
CAMPTOTHECIN = compound: CC[C@@]1(O)C(=O)OCc2c1cc1n(c2=O)Cc2cc3ccccc3nc2-1 [CAMPTOTHECIN]; experiment: surviving fraction relative to DMSO-only wells; higher = less growth inhibition; settings: exposure time: 5 days
Method in brief: (§1)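 Log-phase tumour cell lines were seeded at 250–500 cells per well in 384-well plates. After 24 hours they were exposed continuously for five days to inhibitors at 0.5, 1, 5, 10, 50, 100, 500 and 1000 nM. Viability was read by CellTiter-Glo luminescence after 10 minutes at room temperature, and surviving fraction is luminescence normalised to the median of DMSO-only wells. Each line was screened three times and kept only if replicate Pearson r >0.7 and median Z' >0.3.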

YM155 = compound: COCC[n+]1c2c(n(Cc3cnccn3)c1C)C(=O)c1ccccc1C2=O [YM155]; experiment: as above; settings: exposure time: 5 days
Method in brief: as §1

Row | Test System | surviving fraction (CAMPTOTHECIN; 0.5 nM) | surviving fraction (CAMPTOTHECIN; 1 nM) | surviving fraction (CAMPTOTHECIN; 5 nM) | surviving fraction (CAMPTOTHECIN; 10 nM) | surviving fraction (CAMPTOTHECIN; 50 nM) | surviving fraction (CAMPTOTHECIN; 100 nM) | surviving fraction (CAMPTOTHECIN; 500 nM) | surviving fraction (CAMPTOTHECIN; 1000 nM) | surviving fraction (YM155; 0.5 nM) | surviving fraction (YM155; 1 nM) | surviving fraction (YM155; 5 nM) | surviving fraction (YM155; 10 nM) | surviving fraction (YM155; 50 nM) | surviving fraction (YM155; 100 nM) | surviving fraction (YM155; 500 nM) | surviving fraction (YM155; 1000 nM)
1 | 22RV1 PROSTATE | 0.938 ± 0.095 | 0.957 ± 0.053 | 0.586 ± 0.044 | 0.275 ± 0.022 | 0.162 ± 0.16 | 0.189 ± 0.22 | 0.24 ± 0.28 | 0.24 ± 0.28 | 1.12 ± 0.21 | 1.05 ± 0.097 | 0.703 ± 0.16 | 0.679 ± 0.13 | 0.151 ± 0.16 | 0.165 ± 0.23 | 0.101 ± 0.14 | 0.121 ± 0.16
2 | 93VU HEADNECK | 0.844 ± 0.091 | 0.838 ± 0.038 | 0.805 ± 0.036 | 0.789 ± 0.063 | 0.464 ± 0.021 | 0.277 ± 0.043 | 0.103 ± 0.018 | 0.061 ± 0.007 | 0.961 ± 0.099 | 0.982 ± 0.081 | 1.06 ± 0.061 | 1.045 ± 0.0081 | 0.839 ± 0.034 | 0.815 ± 0.06 | 0.193 ± 0.011 | 0.123 ± 0.027
3 | A549 LUNG | 0.909 ± 0.032 | 0.933 ± 0.021 | 0.964 ± 0.017 | 0.681 ± 0.018 | 0.2 ± 0.0097 | 0.121 ± 0.002 | 0.037 ± 0.003 | 0.026 ± 0.001 | 0.977 ± 0.029 | 1.01 ± 0.034 | 0.971 ± 0.021 | 0.98 ± 0.021 | 0.191 ± 0.005 | 0.12 ± 0.0047 | 0.024 | 0.028
4 | ASKA SYNOVIAL | 0.303 ± 0.029 | 0.641 ± 0.065 | 0.349 ± 0.032 | 0.242 ± 0.025 | 0.118 ± 0.005 | 0.21 ± 0.0046 | 0.157 ± 0.0082 | 0.231 ± 0.0075 | 0.87 ± 0.054 | 0.924 ± 0.094 | 0.719 ± 0.039 | 0.375 ± 0.017 | 0.227 ± 0.017 | 0.195 ± 0.017 | 0.194 ± 0.011 | 0.243 ± 0.017
5 | BT20 BREAST | 0.764 ± 0.067 | 0.744 ± 0.088 | 0.492 ± 0.089 | 0.197 ± 0.015 | 0.096 ± 0.0052 | 0.0537 ± 0.0075 | 0.0213 ± 0.0015 | 0.0257 ± 0.0025 | 0.907 ± 0.077 | 0.875 ± 0.089 | 0.0757 ± 0.0075 | 0.0613 ± 0.006 | 0.028 ± 0.0017 | 0.025 ± 0.0027 | 0.019 ± 0.002 | 0.027 ± 0.002
6 | BT549 BREAST | 0.743 ± 0.096 | 0.672 ± 0.094 | 0.377 ± 0.018 | 0.103 ± 0.014 | 0.032 ± 0.004 | 0.0227 ± 0.00058 | 0.02 | 0.023 ± 0.002 | 1.08 ± 0.11 | 1.03 ± 0.11 | 0.99 ± 0.0076 | 0.834 ± 0.11 | 0.256 ± 0.083 | 0.0713 ± 0.018 | 0.029 ± 0.008 | 0.0307 ± 0.0023
7 | C33A CERVIX | 0.863 ± 0.019 | 0.868 ± 0.074 | 0.654 ± 0.1 | 0.423 ± 0.024 | 0.126 ± 0.03 | 0.0787 ± 0.0078 | 0.0317 ± 0.0032 | 0.0383 ± 0.016 | 0.816 ± 0.047 | 0.325 ± 0.029 | 0.057 ± 0.032 | 0.031 ± 0.0062 | 0.0213 ± 0.00058 | 0.0393 ± 0.041 | 0.0193 ± 0.0076 | 0.0353 ± 0.015
8 | CADOES1 SOFT TISSUE | 0.886 ± 0.088 | 0.818 ± 0.1 | 0.0943 ± 0.0059 | 0.0577 ± 0.014 | 0.045 ± 0.0044 | 0.0337 ± 0.0064 | 0.0317 ± 0.0021 | 0.0297 ± 0.0015 | 1.06 ± 0.12 | 0.907 ± 0.093 | 0.92 ± 0.096 | 0.911 ± 0.12 | 1.02 ± 0.056 | 0.934 ± 0.071 | 0.852 ± 0.054 | 0.881 ± 0.064
9 | CAL51 BREAST | 0.923 ± 0.077 | 0.881 ± 0.05 | 0.797 ± 0.027 | 0.52 ± 0.014 | 0.0468 ± 0.0037 | 0.0333 ± 0.0025 | 0.0225 ± 0.00087 | 0.0242 ± 0.0021 | 0.905 ± 0.039 | 0.873 ± 0.042 | 0.231 ± 0.029 | 0.105 ± 0.015 | 0.0278 ± 0.001 | 0.0232 ± 0.00058 | 0.019 ± 0.00087 | 0.024 ± 0.0005
10 | CAL72 BONE | 0.985 ± 0.029 | 0.991 ± 0.021 | 0.955 ± 0.034 | 0.762 ± 0.12 | 0.18 ± 0.022 | 0.118 ± 0.011 | 0.0517 ± 0.0015 | 0.0597 ± 0.0011 | 1.05 ± 0.081 | 1.01 ± 0.097 | 0.347 ± 0.082 | 0.202 ± 0.034 | 0.058 ± 0.005 | 0.0473 ± 0.0047 | 0.0423 ± 0.0029 | 0.054 ± 0.0044

From the supplement of paper PMC6045584
